The subject of data set [1] is PC3 human prostate carcinoma. The data set can be described thus: In vitro antitumor activity of terpenes against PC3 (seven day exposure). Type of data set: cell-based. Conditions: for activity compared with farnesol (standard): FIGS. 7-9, relative to farnesol; for activity against the human prostate cancer cells: FIGS. 1-6, growth as % of untreated control; for IC50: Homo sapiens, 168 h, PC3, seven day exposure. The protocol:
A human prostate carcinoma cell line, PC3, was obtained from the American Tissue Culture Collection, Accession No. CRL 1435. The PC3 cells were cultured in RPMI 1640 medium enriched with 10% fetal calf serum (FCS). The medium and the FCS are both available from GIBCO BRL Life Technologies, Inc., 8400 Helgeman Lane, Gaithersburg, Md. 20877.
Terpenes were exposed to the PC3 cells as follows. On day 0, seed PC3 cells at about 1,000 cells per well were placed in each well of a 96-well tissue culture plate along with […] (ml) of culture medium. On day 1, various concentrations of each of the selected terpenes were added. A serial dilution of each terpene was made in dimethyl sulfoxide (DMSO). All of the initial concentrations were about 200 times the desired concentration. Each dose was further diluted 100 times with culture medium. 0.1 ml of each dose was added per well to the tissue culture plate. The plates were incubated at 37° Celsius (C) under 5% carbon dioxide (CO2) for seven days. The results are depicted graphically in FIGS. 1-9 and some of the concentrations which inhibited cell growth to about 50% of the control growth (IC50) are shown in Table 1.

Data set [2] has as its system PC3 human prostate carcinoma. The data set can be described thus: In vivo antitumor activity of phytol against PC3 in nude mice. Details: species or system nude mice (human PC3 tumor). The protocol:
(§1) Nude mice were obtained from Cancer Research Facility in Frederick, Md. The strain name is Athymic MCR-nude. PC3 cells were transplanted into both the right and left flanks of nude mice and allowed to grow until the tumor size reached the volume of approximately 200-300 cubic mm (mm^3). At this time, five mice bearing ten tumors total were allocated to each group.
(§2) The drug or vehicle alone were administered by gavage once daily Monday through Friday for two weeks. The control group received olive oil at a dose of 0.1 cubic centimeters (cc) per ten grams (gm) of body weight. Other groups received the same volume of olive oil with limonene added to give a daily dose of limonene of 0.1, 1.0 or 2.0 […]. Both body weight and tumor volume were measured daily.
(§3) The experimental procedure of Example 5 was followed except that phytol was used in place of limonene. […] The results are depicted in FIG. 13 which plots the percent change of tumor volume versus the number of days after inoculation of the nude mice with […] tumor cells.

The subject of the next data set is prostate tumor cells. The data set can be described thus: Apoptosis and nuclear fragmentation (DNA ladder gel). Type of data set: cell-based. Conditions: for DNA ladder indicative of apoptosis: 2% agarose minigel. The protocol: The invention examined the effect on prostate tumor cells of treatment with limonene, farnesol and phytol. […] The classic signature of apoptosis is the cleavage of nuclear DNA into nucleosomal subunits. On gels, this gives rise to the appearance of a ladder as nucleosomal units are sequentially cleaved from the DNA.
After drug exposure, cells were lysed and the high molecular DNA removed by centrifugation. The aqueous phase was treated with proteinase K to digest proteins. After a phenol/chloroform extraction, the DNA was precipitated with salt and ethanol. The pellet was dissolved in deionized water and treated with 500 μg/ml RNase A. The DNA was run on a 2% agarose minigel.

On the set-up of data set [3]: species or system nude mice. As to conditions: mouse, in vivo. How it is done: as §1, §2, §3
The test system of data set [4] is HOS osteosarcoma (low ras). The data set can be described thus: Effect of limonene on tumor cell proliferation, HOS. As to conditions: Homo sapiens, 96 h; DMEM; three to four days of continuous treatment. Type of data set: cell-based. The protocol: (§4) Limonene (Sigma) was evaluated for its effect on proliferation of various tumor cell lines. The cell lines included U87 and A172 (both are glioblastomas), HOS (a low ras osteosarcoma), AD5 (a high ras osteosarcoma), and HT29 (a high ras colon carcinoma). An activated or high ras means that the ras oncogene has mutated to a form which can transform normal cells to malignant cells. The glioblastoma cells were grown in RPMI 1640 culture medium and the other three cell lines were grown in Dulbecco's Modified Eagle's Medium (DMEM, available from GIBCO).
(§5) Limonene was added to the growth medium, which was supplemented with 10% FCS, and incubated at 37° C. for 24 hours. The medium was added to human tumor cells plated the previous day in 60 millimeter (mm) tissue culture (TC) dishes. After three to four days of continuous treatment, the cells were detached by trypsinization and counted using a hemocytometer (Hy-Lite Counting Chamber from Fisher Scientific, 711 Forbes Ave., Pittsburgh, Pa. 15219-4785). Cell viability was determined by a trypin blue exclusion method as described in detail in the manufacturer's instructions.

Data set [5] deals with AD5 human osteosarcoma cell line. The data set can be described thus: Effect of limonene on radiation sensitivity of tumor cells. Type of data set: cell-based. As to conditions: 3 mM limonene; FIG. 10. How it is done:
An activated ras oncogene makes tumor cells resistant to radiation therapy. The AD5 human osteosarcoma cell line is an example of such a cell line resistant to radiation by virtue of an activated ras oncogene. AD5 cells were cultivated as described in Example 2. Limonene was prepared in various concentrations also as described in Example 2. […] This dose refers to the dose that reduces the number of surviving cells to about 37% of the control cells. Gy (gray) is an international metric unit for an absorbed dose of radiation. One Gy equals one Joule/kg.

The next data set relates to U87 glioblastoma. Description: Effect of limonene on tumor cell proliferation, U87. Type of data set: cell-based. Conditions: Homo sapiens, 96 h; RPMI 1640; three to four days of continuous treatment. How it is done:
as §4, §5

The subject of data set [6] is AD5 osteosarcoma (high ras). Description: Effect of limonene on tumor cell proliferation, AD5. Type of data set: cell-based. Conditions: Homo sapiens, 96 h; DMEM; three to four days of continuous treatment. The protocol:
as §4, §5

The test system of data set [7] is HT29 colon carcinoma (high ras). Description: Effect of limonene on tumor cell proliferation, HT29. Conditions: Homo sapiens, HT-29, 96 h; DMEM; three to four days of continuous treatment. Type of data set: cell-based. How it is done:
as §4, §5

Data set [8] in a line: Tolerability and body weight of nude mice treated with limonene. Type of data set: in vivo. How it is done:
as §1
(§6) The drug or vehicle alone were administered by gavage once daily Monday through Friday for two weeks. The control group received olive oil at a dose of 0.1 cubic centimeters (cc) per ten grams (gm) of body weight. […] Both body weight and tumor volume were measured daily.

Data set [9] deals with PC3 human prostate carcinoma. Description: In vivo antitumor activity of d-limonene against PC3 in nude mice. Details: species or system nude mice (human PC3 tumor). As to conditions: gavage once daily Monday through Friday for two weeks. The protocol:
as §1, §6

The test system of data set [10] is tumor cell lines U87, A172, HOS, AD5, HT29. The data set can be described thus: Cell viability of surviving cells in the proliferation test (exclusion method). Conditions: of the approximately 50% of cells which survived (at IC50). Type of data set: cell-based, human. The protocol: as §5
For data set [11] the following is noted: to compounds having terminal hydroxy groups; cited from earlier work.
A further data set relates to A172 glioblastoma. Description: Effect of limonene on tumor cell proliferation, A172. Type of data set: cell-based. Conditions: Homo sapiens, A 172, 96 h; RPMI 1640; three to four days of continuous treatment. How it is done: as §4, §5

“And” between values parts separate entries of the source, which are not always exact repeats. Equal values may be shown once. “Also recorded” adds a separate entry of the source. Read-outs that look alike come from different tables or passages of the source.

The values that follow come from patent US5602184A, “Monoterpenes, sesquiterpenes and diterpenes as cancer therapy” (priority 1993, dated 1997).

On to `C=CC(C)CCCC(C)(C)O` (stereo not drawn) [dihydromyrcenol], for which the “activity compared with farnesol (standard)” value in data set [1] was “less active”.
On the same count and under the same terms, then `CC(C)c1ccc(C=O)cc1` [4-isopropylbenzaldehyde], with “less active”; and `CC(C)c1ccc(C(=O)O)cc1` [4-isopropylbenzoic acid], with “less active”; and `CC(C)=CCCC(C)CC=O` (stereo not drawn) [citronellal], with “less active”.
The IC50 is the concentration needed to halve the response being measured. Lower therefore signals greater potency. Consider `CC(C)=CCCC(C)=CC=O` [citral], for which, in [1], the “activity against the human prostate cancer cells” value is given as “favorable activity”; the half-maximal inhibitory concentration (IC50) was 17 µM and 3 µg/mL.
With `C=CC(=C)CCC=C(C)C` [beta-myrcene], the IC50 in data set [1] is 147 µM and 21 µg/mL.
For the molecule `C/C(=C\CO)CCC[C@H](C)CCC[C@H](C)CCCC(C)C` [phytol], the “tumor production during the treatment period” value in data set [2] (during the treatment period) was “negligible tumor production”. Besides, in [2] (phytol by procedure of Example 5), the “tumor volume as compared to the control animals” value is listed as “lower tumor volume”. Moreover, in the data set with prostate tumor cells, the “mode of cell death” value is on record as “apoptosis, not necrosis”; the “tumor cell death (not cytostasis)” value is “tumor cell death (not cytostasis) was observed”; the “DNA ladder indicative of apoptosis” value was “a classic DNA ladder indicative of apoptosis has been noted”. In data set [1], the “activity against the human prostate cancer cells” value is on record as “favorable activity”; the half-maximal inhibitory concentration (IC50) was 34.3 µM and 10 µg/mL. Further, in data set [3], the tolerability entry is reported as “tolerated the phytol well”.
Take `CC(C)=CCC[C@@H](C)CCO` [d-citronellol]: in [1], the “activity compared with farnesol (standard)” value is “less active”.
Consider `C=CC(C)(O)CCC=C(C)CCC=C(C)C` (stereo not drawn) [nerolidol], for which, in [1], the “activity against the human prostate cancer cells” value is “favorable activity”; the IC50 was 90.1 µM and 20 µg/mL.
In the case of `CC(C)=CCCC(C)CC(=O)O` (stereo not drawn) [citronellic acid], in data set [1], the “activity compared with farnesol (standard)” value was “less active”.
`C=C(C)C1CC=C(C=NO)CC1` (stereo not drawn) [perillartine]: the “activity compared with farnesol (standard)” value in data set [1] is reported as “less active”.
Same read-out and setting: then `CC(C)c1ccc(CO)cc1` [4-isopropylbenzylalcohol], with “less active”.
Regarding `CC(C)=CCC/C(C)=C/CC/C(C)=C/CC/C(C)=C/CO` [geranylgeraniol], in data set [1], the “activity against the human prostate cancer cells” value is on record as “favorable activity”; the half-inhibitory concentration (IC50) was 10.5 µM and 3 µg/mL.
`CC(C)=CCC/C(C)=C\CO` [nerol]: in data set [1], the “activity compared with farnesol (standard)” value was “less active”.
As a reminder, the cell viability is the share of living cells, or the viability signal relative to a control. Read a low cell viability as a greater loss of cells. As for `C=C(C)[C@H]1CC=C(C)CC1` [limonene, d-Limonene], the IC50 in data set [4] was 3000 ± 300 µM; in the data set on U87 glioblastoma it was 2100 ± 400 µM; in [6], 4800 ± 600 µM; in [7] it was 4500 ± 500 µM; in data set [1] it was 217 µM and 30 µg/mL; in the data set on A172 glioblastoma, 1500 ± 500 µM. Further, the “effect on radiation dose response curve” value in data set [5] was “alters both the shoulder and the dose (Do) of the radiation dose response curve”. Moreover, the “mode of cell death” value in the data set on prostate tumor cells is “apoptosis, not necrosis”. For the same molecule, in the data set with prostate tumor cells, the “tumor cell death (not cytostasis)” value is on record as “tumor cell death (not cytostasis) was observed”. Further, the “DNA ladder indicative of apoptosis” value in the data set on prostate tumor cells is reported as “a classic DNA ladder indicative of apoptosis has been noted; also recorded: classic DNA ladders”. Further, the tolerability entry in [8] (gavage, two weeks, up to 2.0 gm/kg) is “appeared to tolerate the drug well”. The loss in weight result in data set [8] (mouse, in vivo) is recorded as “not a statistically significant loss in weight”. In addition, the “rate of tumor growth vs control group” value was “the same” in data set [9] (0.1 gm/kg), “the same” in data set [9] (1.0 gm/kg) and “approximately half of that in the control group” in [9] (2.0 gm/kg). For the same molecule, the cell viability in data set [10] was above 95%. In addition, the metabolism in vivo entry in data set [11] is “rapidly metabolized”.
As for `CC(C)=CCC/C(C)=C/CC/C(C)=C/CO` [farnesol, trans, trans-farnesol], in the data set on prostate tumor cells, the “mode of cell death” value is “apoptosis, not necrosis”; the “tumor cell death (not cytostasis)” value is “tumor cell death (not cytostasis) was observed”; the “DNA ladder indicative of apoptosis” value is given as “a classic DNA ladder indicative of apoptosis has been noted; also recorded: classic DNA ladders”. In data set [1], the “activity against the human prostate cancer cells” value was “favorable activity”; the IC50 was 85.6 µM and 19 µg/mL.
Consider `O=C(O)CCCCCCCCCCCCCCCO` [16-hydroxyhexadecanoic acid], for which, in data set [1], the “activity compared with farnesol (standard)” value is recorded as “less active”.
On to `CC(C)=CCC/C(C)=C/CC/C(C)=C/C(=O)O` [farnesylic acid], for which, in data set [1], the “activity against the human prostate cancer cells” value is listed as “favorable activity”.
